Here are results for 5 compounds from patent US7276532B2, “Remedies for vesical hyperactivity” (Kyowa Hakko Kogyo Co., Ltd., priority 2001, dated 2007).

The subject of one assay is spinal cord-injured rats. Kind of assay: Inhibitory activity on detrusor hyperreflexia (cystometry test). The class given is in vivo, rat. To be noted: average ± standard error. Here is the method:
The experiment was carried out according to the method of Cheng, et al. [Brain Res., Vol. 678, pp. 40-48 (1995)].
Female SD rats of 8 to 10 weeks of age (supplied by Japan SLC) were used in the test. Five to seven animals of these rats were put in each metal cage and reared by allowing them to freely take commercially available chow and water, in an animal room at room temperature between 19 and 25° C. and humidity between 30 and 70% under illumination for 12 hours (from 7:00 a.m. to 7:00 p.m.) per day.
An operation of spinal cord injury was performed in the rats. Each animal was anesthetized with diethyl ether and the skin of the back side thoracic cord part was incised. A laminectomy at the 7th to 8th thoracic vertebrae level was performed. Then, the thoracic cord at the T7-T8 segments was macroscopically cut and a section of spinal cord (about 5 mm) was removed, and the wound cavity of the removed part was filled with oxidized regenerated cellulose for hemostasis. The incised part was sutured with a surgical silk. After the spinal cord injury operation, urine was expressed manually twice per day (at 8:00-9:00 and 18:00-19:00) for about 3 weeks until autonomic micturition developed. An antibiotic (ampicillin, Sigma. Chemical Co.) was intramuscularly administered to the animals at a dose of 150 mg/kg once to twice per day for about 2 weeks.
Four to five weeks after the spinal cord injury, the rats were subjected to bladder catheterization. Under diethyl ether anesthesia, the bladder was exposed by midline incision of the abdomen. […] The bladder catheter was fixed with a surgical silk ligature and indwelled. The other end of the catheter was exposed subcutaneously from the back of the neck, plugged and then fixed to the skin with a surgical thread.
Four to six days after the bladder catheterization, a cystometry test was performed. The rats were put in a Bollman cage (Natsume Seisakusho Co., Ltd.) and a three-way cock was connected to the bladder catheter, one end of the cock was connected to a pressure transducer (Nihon Kohden Corp.) and the other end was connected to a 50-mL syringe (Terumo Corp.) arranged to an infusion pump (Harvard Apparatus, Inc.) for physiological saline infusion. The intravesical pressure signal from the pressure transducer was amplified with a strain pressure amplifier (AP-601G, Nihon Kohden Corp.) connected thereto, and was recorded on a thermal array recorder (RTA-1200, Nihon Kohden Corp.) via a polygraph system (RMP-6008, Nihon Kohden Corp.) containing the above amplifier. Sixty to ninety minutes after the completion of the preparation for the measurement, a room temperature physiological saline was infused into the bladder at a flow rate of 10 mL/h for 30 minutes, the occurence of micturition contractions was confirmed. Thirty minutes later, the infusion of physiological saline was carried out again for 30 minutes, and the intravesical pressure was measured to be used as the pre-administration value. Each of Compounds 1 to 6 was suspended in a 0.5 w/v % aqueous solution of methylcellulose at a concentration of 1 mg/mL suspension. The suspension was further diluted with a 0.5 w/v % aqueous solution of methylcellulose to prepare a suspension or solution for the administration at the intended concentration, which was then orally administered to the animals at a volume of 1 mL/kg. The period of 1, 3 and 5 hours after the dosing was used as the measuring time after the administration of the solvent or a compound tested, and the intravesical infusion of a physiological saline was carried out during a duration of 15 minutes around each measuring time (i.e. from 45 to 75 minutes, from 165 to 195 minutes and from 285 to 315 minutes after the administration of the compound).
Micturition contraction was measured as an index of the voiding function and pre-micturition contraction was measured as an index of detrusor hyperreflexia. […]

Assay [1] has as its system rats with bladder hypertrophy. Briefly: Inhibitory activity on detrusor instability (cystometry test after partial urethral obstruction). The assay is classed as in vivo, rat. To be noted: average ± standard error. Here is the method: The experiment was carried out according to the method of Malmgren, et al. [J. Urol., Vol. 142, pp. 1134-1138 (1989)].
Female SD rats of 8 to 10 weeks of age (supplied by Japan SLC) were used in the test. Five to seven animals of these rats were put in each metal cage and reared by allowing them to freely take commercially available chow and water, in an animal room at room temperature between 19 and 25° C. and humidity between 30 and 70% under illumination for 12 hours (7:00 a.m.-7:00 p.m.) per day.
The rats were subjected to operation of partial urethral obstruction. Each animal was anesthetized by intraperitoneal administration of 50 mg/kg pentobarbital sodium (Dainippon Pharmaceutical Co., Ltd.), and the midline incision of the skin and muscle was made in the lower abdomen. A polyethylene tube (PE-20, Nippon Becton Dickinson Co., Ltd.) was inserted into urethra from the urethral to the bladder neck. After the proximal urethra was peeled and double-ligated, the polyethylene tube was pulled out to cause partial urethral obstruction. The incised part was-sutured with a surgical silk thread. An antibiotic (ampicillin, Sigma Chemical Co.) was intramusclarly administered to the animals at a dose of 150 mg/kg.
Six weeks after the operation of the partial urethral obstruction, the rats with bladder hypertrophy were subjected to bladder catheterization. Under anesthesia with pentobarbital sodium, the bladder was exposed by midline incision of the abdomen. […] The bladder catheter was fixed with a surgical silk ligature and indwelled. The other end of the catheter was exposed subcutaneously from the back of the neck, plugged and then fixed to the skin with a surgical thread.
Four to six days after the bladder catheterization, a cystometry test was performed. The rats were put in a Bollman cage (Natsume Seisakusho Co., Ltd.) and a three-way cock was connected to the bladder catheter, one end of the cock was connected to a pressure transducer (Nihon Kohden Corp.) and the other end was connected to a 50-mL syringe (Terumo Corp.) arranged to an infusion pump (Harvard Apparatus, Inc.) for physiological saline infusion. The intravesical pressure signal from the pressure transducer was amplified with a strain pressure amplifier (AP-601G, Nihon Kohden Corp.) connected thereto, and was recorded on a thermal array recorder (RTA-1200, Nihon Kohden Corp.) via a polygraph system (RMP-6008, Nihon Kohden Corp.) containing the above amplifier. Sixty to ninety minutes after the completion of the preparation for the measurement, intravesical infusion of a room temperature physiological saline at a flow rate of 10 mL/h was started and continued until the completion of the test, and the occurrence of micturition contractions and pre-micturition contractions were confirmed. The chart for 30 minutes after 3 hours from the commencement of the saline infusion was used as the values before the drug administration. Each of Compounds 1 to 3 was suspended in a 0.5 w/v % aqueous solution of methylcellulose at a concentration of 1 mg/mL. The suspension was further diluted with a 0.5 w/v % aqueous solution of methylcellulose to prepare a suspension or solution for the administration at the intended concentration. This was then orally administered to the animals at a volume of 1 mL/kg. The period of 1, 3 and 5 hours after the dosing was used as the measuring time after the administration of the solvent or a compound tested, and a duration of 15 minutes around each measuring time (45 to 75 minutes, 165 to 195 minutes and 285 to 315 minutes after the administration of the compound) was used as the measuring period.
Micturition contraction was used as an index of the voiding function and pre-micturition contraction was measure as an index of detrusor instability. […]

In the case of `COc1ccc2c(c1)CS(=O)(=O)c1cccc(NC(=O)C(C)(O)C(F)(F)F)c1C2=O` (stereo not drawn) [Compound 2], the “micturition contractions (relative value, before administration = 100)” value in the assay with spinal cord-injured rats (3 mg/kg p.o., after 1 hr.) is on record as 94.9 ± 14.3%; with spinal cord-injured rats (3 mg/kg p.o., after 3 hrs.), 93.6 ± 16.7%; in the assay with spinal cord-injured rats (3 mg/kg p.o., after 5 hrs.), 99.4 ± 9.0%; in assay [1] (3 mg/kg p.o., after 1 hr.) it was 104.5 ± 2.0%; in assay [1] (3 mg/kg p.o., after 3 hrs.) it was 101.9 ± 5.9%; in assay [1] (3 mg/kg p.o., after 5 hrs.) it was 100.9 ± 5.5%. Also, the “pre-micturition contractions (relative value, before administration = 100)” value with spinal cord-injured rats (3 mg/kg p.o., after 1 hr.) is reported as 55.1 ± 7.3%; in the assay with spinal cord-injured rats (3 mg/kg p.o., after 3 hrs.) it was 80.2 ± 23.6%; in the assay on spinal cord-injured rats (3 mg/kg p.o., after 5 hrs.) it was 66.8 ± 14.5%; in assay [1] (3 mg/kg p.o., after 1 hr.), 67.5 ± 7.9%; in assay [1] (3 mg/kg p.o., after 3 hrs.), 66.9 ± 8.5%; in assay [1] (3 mg/kg p.o., after 5 hrs.) it was 74.7 ± 7.6%.
Turning to `CC(C)(C(=O)[O-])C(=O)Nc1cccc2c1C(=O)c1sccc1CS2(=O)=O.[Na+]` [Compound 3], the “micturition contractions (relative value, before administration = 100)” value in the assay with spinal cord-injured rats (1 mg/kg p.o., after 1 hr.) is 109.3 ± 5.7%; in the assay with spinal cord-injured rats (1 mg/kg p.o., after 3 hrs.), 109.5 ± 8.2%; in the assay with spinal cord-injured rats (1 mg/kg p.o., after 5 hrs.), 111.4 ± 5.6%; in assay [1] (10 mg/kg p.o., after 1 hr.), 96.8 ± 6.3%; in assay [1] (10 mg/kg p.o., after 3 hrs.), 95.7 ± 4.7%; in assay [1] (10 mg/kg p.o., after 5 hrs.), 92.2 ± 4.6%. Moreover, the “pre-micturition contractions (relative value, before administration = 100)” value with spinal cord-injured rats (1 mg/kg p.o., after 1 hr.) is recorded as 66.2 ± 15.8%; in the assay with spinal cord-injured rats (1 mg/kg p.o., after 3 hrs.), 65.3 ± 24.9%; in the assay on spinal cord-injured rats (1 mg/kg p.o., after 5 hrs.) it was 52.3 ± 13.7%; in assay [1] (10 mg/kg p.o., after 1 hr.), 62.4 ± 7.1%; in assay [1] (10 mg/kg p.o., after 3 hrs.) it was 49.1 ± 6.3%; in assay [1] (10 mg/kg p.o., after 5 hrs.), 51.8 ± 3.5%.
For the compound `C[C@](O)(C(=O)Nc1cccc2c1C(=O)c1sccc1CO2)C(F)(F)F` [Compound 4], the “micturition contractions (relative value, before administration = 100)” value in the assay with spinal cord-injured rats (1 mg/kg p.o., after 1 hr.) stood at 95.5 ± 8.2%; in the assay on spinal cord-injured rats (1 mg/kg p.o., after 3 hrs.) it was 106.2 ± 7.0%; in the assay on spinal cord-injured rats (1 mg/kg p.o., after 5 hrs.), 121.4 ± 9.5%. Moreover, the “pre-micturition contractions (relative value, before administration = 100)” value in the assay with spinal cord-injured rats (1 mg/kg p.o., after 1 hr.) was 58.6%; in the assay with spinal cord-injured rats (1 mg/kg p.o., after 3 hrs.), 44.4%; in the assay on spinal cord-injured rats (1 mg/kg p.o., after 5 hrs.) it was 42.6%.
With `CC(C)(C)C(=O)Nc1cccc2c1C(=O)c1sccc1CO2` [Compound 5], the “micturition contractions (relative value, before administration = 100)” value with spinal cord-injured rats (1 mg/kg p.o., after 1 hr.) is listed as 96.8 ± 4.4%; with spinal cord-injured rats (1 mg/kg p.o., after 3 hrs.), 109.4 ± 6.4%; in the assay on spinal cord-injured rats (1 mg/kg p.o., after 5 hrs.), 113.9 ± 15.4%. The “pre-micturition contractions (relative value, before administration = 100)” value with spinal cord-injured rats (1 mg/kg p.o., after 1 hr.) came out at 86.2 ± 10.2%; with spinal cord-injured rats (1 mg/kg p.o., after 3 hrs.), 57.3 ± 9.2%; with spinal cord-injured rats (1 mg/kg p.o., after 5 hrs.), 44.8 ± 6.1%.
`CC(O)(C(=O)Nc1ccc(Cl)c2c1C(=O)c1sccc1CS2(=O)=O)C(F)(F)F` (stereo not drawn) [Compound 6]: the “micturition contractions (relative value, before administration = 100)” value was 96.8 ± 4.4% in the assay on spinal cord-injured rats (1 mg/kg p.o., after 1 hr.); 109.4 ± 6.4% with spinal cord-injured rats (1 mg/kg p.o., after 3 hrs.); 113.9 ± 15.4% with spinal cord-injured rats (1 mg/kg p.o., after 5 hrs.). The “pre-micturition contractions (relative value, before administration = 100)” value in the assay on spinal cord-injured rats (1 mg/kg p.o., after 1 hr.) was found to be 62.7 ± 9.3%; in the assay on spinal cord-injured rats (1 mg/kg p.o., after 3 hrs.), 87.9 ± 16.9%; in the assay with spinal cord-injured rats (1 mg/kg p.o., after 5 hrs.) it was 69.0 ± 11.8%.
